The values below come from the supplement of paper PMC12613149.

Data set [1] is described as follows: reversed-phase LC retention time (C18, 15 min MeOH gradient); higher = more hydrophobic / later elution.
Data set [2] in a line: collision cross section (TIMS, N2 drift gas) of the primary ion; higher = larger gas-phase ion size.
Where [3] appears, read: ionization mode: ESI+, ion species: [M+H]+.
The mark [4] stands for this setting: ionization mode: ESI-, ion species: [M-H]-.
[5] abbreviates: ionization mode: ESI+, ion species: [M]+.

Regarding `NC(=NCCCCCCN=C(N)N=C(N)Nc1ccc(Cl)cc1)N=C(N)Nc1ccc(Cl)cc1` [Chlorohexidine], the “reversed-phase LC retention time” value in data set [1] (setting [3]) is 12.4 min. Moreover, in data set [2] (setting [3]), the collision cross section is recorded as 224.29 Å².

In the case of `C[C@H](CCC(=O)O)[C@H]1CC[C@H]2[C@@H]3[C@H](O)C[C@@H]4C[C@H](O)CC[C@]4(C)[C@H]3CC[C@]12C` [Chenodeoxycholic acid], in data set [1] (setting [4]), the “reversed-phase LC retention time” value stood at 15.6 min. Further, the collision cross section in data set [2] (setting [4]) was determined as 209.87 Å².

For the compound `Cc1ccc(S(=O)(=O)O)c(C)c1` [m-Xylene-4-sulfonic acid], the “reversed-phase LC retention time” value in data set [1] (setting [4]) is 7.68 min. In data set [2] (setting [4]), this compound showed a collision cross section of 136.84 Å².

Regarding `CN(C)CCOC(c1ccccc1)c1ccccc1` [Diphenhydramine], the “reversed-phase LC retention time” value in data set [1] (setting [3]) amounted to 11.6 min. In addition, the collision cross section in data set [2] (setting [3]) came out at 162.95 Å².

With `CC(=O)CCc1ccc(O)cc1` [4-(4-Hydroxyphenyl)butan-2-one], the “reversed-phase LC retention time” value turned out to be 11.7 min in data set [1] (setting [3]) and 11.9 min in data set [1] (setting [4]). Also, the collision cross section in data set [2] (setting [3]) is 132.84 Å²; in data set [2] (setting [4]), 135.07 Å².

Turning to `CCC(=O)Nc1ccc(Cl)c(Cl)c1` [Propanil], the “reversed-phase LC retention time” value in data set [1] (setting [3]) amounted to 13.8 min; in data set [1] (setting [4]), 14.1 min. Further, the collision cross section in data set [2] (setting [3]) was 146.71 Å²; in data set [2] (setting [4]) it was 141.22 Å².

`CCC(C)(CC)c1cc(NC(=O)c2c(OC)cccc2OC)on1` [Isoxaben]: the “reversed-phase LC retention time” value is 14.3 min in data set [1] (setting [3]) and 14.7 min in data set [1] (setting [4]). Further, the collision cross section in data set [2] (setting [3]) is listed as 186.76 Å²; in data set [2] (setting [4]), 186.45 Å².

For `CCCCCCCCCCCCCCN(C)C` [N,N-Dimethyltetradecylamine], the “reversed-phase LC retention time” value in data set [1] (setting [3]) was found to be 16.6 min. This compound came in with a collision cross section in data set [2] (setting [3]) of 179.2 Å².

On to `CCCN(CCC)C(=O)SCc1ccccc1` [Prosulfocarb], for which the “reversed-phase LC retention time” value in data set [1] (setting [3]) turned out to be 16.4 min. In addition, the collision cross section in data set [2] (setting [3]) is on record as 158.12 Å².

Take `CC(=O)OCC(=O)[C@@]1(O)CC[C@H]2[C@@H]3CCC4=CC(=O)CC[C@]4(C)[C@@]3(F)[C@@H](O)C[C@@]21C` [Fludrocortisone-21-acetate]: in data set [1] (setting [4]), the “reversed-phase LC retention time” value was 13.6 min. Besides, the collision cross section in data set [2] (setting [4]) is 197.85 Å².

As to `CC(C)(C#N)c1cc(Cn2cncn2)cc(C(C)(C)C#N)c1` [Anastrozole], the “reversed-phase LC retention time” value in data set [1] (setting [3]) was 11.3 min. In addition, the collision cross section in data set [2] (setting [3]) is recorded as 185.09 Å².

As for `CCn1cc(C(=O)O)c(=O)c2cc(F)c(N3CCNCC3)cc21` [Norfloxacin], the “reversed-phase LC retention time” value in data set [1] (setting [3]) came out at 8.08 min. Also, the collision cross section in data set [2] (setting [3]) came out at 173.95 Å².

Regarding `CCCCCCS(=O)(=O)O` [1-Hexanesulfonic acid], the “reversed-phase LC retention time” value in data set [1] (setting [4]) was 9.04 min. For the same compound, the collision cross section in data set [2] (setting [4]) was found to be 137.49 Å².

Take `COc1nc(C)nc(NC(=O)NS(=O)(=O)c2ccccc2CCC(F)(F)F)n1` [Prosulfuron]: the “reversed-phase LC retention time” value in data set [1] (setting [3]) was 13.9 min; in data set [1] (setting [4]) it was 11.9 min. Further, the collision cross section in data set [2] (setting [3]) is given as 188.2 Å²; in data set [2] (setting [4]) it was 189.48 Å².

For the compound `CC(C)CC(C)(O)C#CC(C)(O)CC(C)C` (stereo not given) [TMDD], the “reversed-phase LC retention time” value in data set [1] (setting [3]) was 16.4 min. In data set [2] (setting [3]), this compound showed a collision cross section of 168.69 Å².

Regarding `CC(=O)Nc1c(C)n(C)n(-c2ccccc2)c1=O` [N-Acetyl-4-aminoantipyrine], in data set [1] (setting [3]), the “reversed-phase LC retention time” value worked out at 7.85 min. Also, in data set [2] (setting [3]), the collision cross section was 154.74 Å².

In the case of `CCCCCOC(=O)c1ccccc1C(=O)OCCCCC` [Di-n-pentylphthalate], the “reversed-phase LC retention time” value in data set [1] (setting [3]) is 17.4 min. This compound also gave a collision cross section in data set [2] (setting [3]) of 182.77 Å².

Turning to `CCN(CC)c1nc(C)cc(OP(=S)(OC)OC)n1` [Pirimiphos-methyl], the “reversed-phase LC retention time” value in data set [1] (setting [3]) was determined as 15.7 min. The collision cross section in data set [2] (setting [3]) came to 167.52 Å².

Regarding `NS(=O)(=O)c1cc2c(cc1Cl)NCNS2(=O)=O` [Hydrochlorothiazide], the “reversed-phase LC retention time” value in data set [1] (setting [4]) was found to be 4.93 min. The collision cross section in data set [2] (setting [4]) is recorded as 152.66 Å².

Regarding `NS(=O)(=O)C(F)(F)C(F)(F)C(F)(F)C(F)(F)C(F)(F)C(F)(F)C(F)(F)C(F)(F)F` [Perfluorooctanesulfonamide], the “reversed-phase LC retention time” value in data set [1] (setting [4]) was 15.7 min. In addition, the collision cross section in data set [2] (setting [4]) is 169.81 Å².

For `C[C@]12CC[C@@H]3c4ccc(O)cc4CC[C@H]3[C@@H]1C[C@@H](O)[C@@H]2O` [Estriol], the “reversed-phase LC retention time” value in data set [1] (setting [4]) is 11.4 min. In addition, the collision cross section in data set [2] (setting [4]) is reported as 176.65 Å².

For `C[C@]12C=CC(=O)C=C1CC[C@@H]1[C@@H]2C(=O)C[C@@]2(C)[C@H]1CC[C@]2(O)C(=O)CO` [Prednisone], the figures for the “reversed-phase LC retention time” value in data set [1] (setting [3]) and in data set [1] (setting [4]) were 11.9 min and 15.2 min, respectively. Besides, the collision cross section in data set [2] (setting [3]) amounted to 185.97 Å²; in data set [2] (setting [4]) it was 184 Å².

Consider `COc1ccc(-c2coc3cc(O)ccc3c2=O)cc1` [Formononetin], for which the “reversed-phase LC retention time” value stood at 13.2 min in data set [1] (setting [3]) and 12.2 min in data set [1] (setting [4]). Moreover, the collision cross section in data set [2] (setting [3]) was 158.9 Å²; in data set [2] (setting [4]) it was 163.97 Å².

`COCCCCC(=NOCCN)c1ccc(C(F)(F)F)cc1` [Fluvoxamine]: in data set [1] (setting [3]), the “reversed-phase LC retention time” value came to 13.3 min. In data set [2] (setting [3]), this compound returned a collision cross section of 178.07 Å².

Regarding `c1ccc2[nH]nnc2c1` [Benzotriazole], the “reversed-phase LC retention time” value in data set [1] (setting [3]) is 7.82 min. In data set [2] (setting [3]), this compound showed a collision cross section of 119.49 Å².

As to `CCCN(CCOc1c(Cl)cc(Cl)cc1Cl)C(=O)NC=O`, the “reversed-phase LC retention time” value in data set [1] (setting [3]) amounted to 15.7 min. The compound further showed a collision cross section in data set [2] (setting [3]) of 174.76 Å².

For `CCCCc1c(C)nc(NCC)nc1OS(=O)(=O)N(C)C` [Bupirimate], the “reversed-phase LC retention time” value in data set [1] (setting [3]) was found to be 14.7 min. Moreover, the collision cross section in data set [2] (setting [3]) stood at 176.08 Å².

As for `CCCCCCCCCCCCCCCCCC[N+](C)(C)CCCCCCCCCCCCCCCCCC` [Dimethyldioctadecylammonium], the “reversed-phase LC retention time” value in data set [1] (setting [5]) came to 21.1 min. In data set [2] (setting [5]), this compound returned a collision cross section of 272.56 Å².

On to `O=C(c1ccc(O)cc1O)c1ccc(O)cc1O` [2,2',4,4'-Tetrahydroxybenzophenone], for which the “reversed-phase LC retention time” value in data set [1] (setting [4]) came to 8.54 min. The compound also had a collision cross section in data set [2] (setting [4]) of 151.01 Å².
